# Measured values as given in patent US9513280B2, “Microfluidic biological barrier model and associated method” (The University of Utah Research Foundation, priority 2012, dated 2016).
# Like-named read-outs stand apart in the source and are kept apart here.
# System: co-cultured μBBB models (bEnd.3 endothelial cells and C8-D1A astrocytes)
# Details: for period of transient TEER drop: co-cultured μBBB on day 4
# Procedure: To evaluate the fabricated μBBB system, three methods were employed: (1) Cell imaging to observe structure and morphology, (2) TEER levels to evaluate cell confluence and tight junction integrity, and (3) permeability assays to evaluate barrier selectivity. Cells were imaged with a Live/Dead assay to verify cell viability, and immunostained to look at expression of astrocyte marker GFAP and tight junction component […] (ZO-1). TEER was measured as an indicator of cell confluence and tight junction integrity, with time to maximum TEER being indicative of BBB development time. Fluxes of fluorescent-labeled tracer molecules were measured to assess permeability to larger solutes. […] Permeability was measured in μBBB models exposed to DMEM:F12 media with elevated pH (>10) for 4 h.
# Over the course of the μBBB model evaluation experiments, TEER was measured twice a day to monitor cell confluence and development of tight junctions. For measurement of TEER, voltage and current electrode wires were connected via an electrode adaptor (WPI) to an EVOM2 epithelial voltohmmeter (WPI). The EVOM2 passes a constant 10 μA AC current at 12.5 Hz while measuring resistance. To calculate TEER, initial D0 Background resistances Rb were subtracted from total resistance RC at each time point and normalized for area, giving TEER values in Ωcm^2 as in the following equation: TEER=(RC−Rb)A
# TEER of transwell cultures were measured daily by placing them in an Endohm chamber (WPI) and connecting it to the EVOM2.
compound,measurement,setting,value
NCCc1c[nH]cn1 [histamine],time for TEER to return to initial levels,100 μM histamine,within six minutes
same,period of transient TEER drop,100 μM histamine,5 to 7 min
same,time for TEER to return to initial levels,150 μM histamine,≤ 15 min
same,period of transient TEER drop,150 μM histamine,8 to 15 min
